These results are taken from PMC11645656, “MRGPRX4 mediates phospho-drug associated pruritus in a humanized mouse model” (Science translational medicine, 2024).

“And” between values parts separate entries of the source, which are not always exact repeats. Equal values may be shown once.

The subject of one assay is HTLA cells. Nature of the assay: PRESTO-Tango β-arrestin recruitment assay, parental HTLA cells without MRGPRX4 (control, fig. S1). The assay is classed as cell-based. The text has this:
Supplement NIHMS2038790-supplement-table.xlsx, sheet "fig. S1" | column: Concentration (M)
For orientation: Arrestin recruitment assays detect the binding of arrestin to an activated receptor.

Assay [1] deals with NP2-X4+ mice (MRGPRX4 in Mrgpra3+ NP2 sensory neurons). Nature of the assay: Itch behavioral study (scratching bouts after subcutaneous nape injection) in NP2-X4+ mice. The assay is classed as in vivo, mouse. As to conditions: for Scratching / itch behavior, NP2-X4+ mice vs WT littermates: 50 μl 10 mM nape injection, 30 min; for Scratching bouts of individual animals: NP2-X4+, 30 min after injection of 50 μl 10 mM into the nape, each cell one mouse.

Assay [2] has as its target T1, MRGPRX4 S83L (L83) (Homo sapiens, UniProt Q96LA9). Nature of the assay: Calcium mobilization assay (FLIPR), S83L MRGPRX4 transiently expressed in HEK293T cells. Also noted: expressed in transfected cells; host or cells: HEK293T, transient. The note with it: for Calcium mobilization response (Fig. 4D dose-response): each cell one replicate. It is filed as cell-based. The text has this:
(§1) Fig. 4. […] Hydrogen bond is shown as cyan dashed lines. […] Data are from three independent experiments, performed in triplicate. (E) pEC50 plots of various agonists toward S83- and L83-MRGPRX4 through calcium mobilization assay. […] Each data point represents an independent experiment, performed in triplicate. The extra sum-of-square F test was used to examine the difference in EC50 values. One-sided t-test was used for nateglinide. *p< 0.05, **p< 0.01 and ***p< 0.001. ns = no statistical significance. Both (D) and (E) are reported as the mean ± SEM. N.D.= no detectable response ≤ 100 μM.
(§2) HEK293 cells and MRGPRX4 stably expressed HEK293 cells were seeded in 100 μl culture media on 96-well plates at a density of 40,000 cells per well and incubated overnight. The next day, the media were replaced with a dye-loading solution from the FLIPR Calcium 5 assay kit (Molecular Devices), diluted in Hank's Balanced Salt Solution (HBSS) with 20 mM HEPES, pH 7.4. After 1 h of incubation at 37°C, cells were allowed to recover for 10 min in the dark at room temperature prior to performing intracellular calcium mobilization assay in a Flexstation-3 instrument with SoftMax®Pro 7.1 software (Molecular Devices). Serial concentrations of tested drugs were prepared in HBSS/HEPES solution at 3X concentration. […] Compounds were tested in triplicates and the signals were averaged. Responses were determined by subtracting the minimum signal (at the baseline before adding the drug) from the maximum signal (obtained after drug stimulation). Four-parameter logistic (4PL) curve fit was used to plot the dose-response curves. […] Both dose-response curve fitting and EC50s calculation are computed with GraphPad Prism software (version: 6.o or above).
(§3) To generate murine Mrgprs expressing cells, HEK293T cells (ATCC) were seeded on poly-D-lysine coated 96 well plate at 25,000 cells per well one day prior to transfection. HEK293T cells were transiently co-transfected with the mammalian expression plasmids carrying cDNA encoding the murine Mrgpr genes and plasmid inserted with cDNA encoding murine α-subunit of the heterotrimeric G15 protein (Gα15) in triplicates using Lipofectamine LTX reagents (Thermo Scientific). To generate WT, S83L, and alanine mutant MRGPRX4-expressing cells, HEK293T cells were seeded on poly-D-lysine coated 384 well plate at 12,000 cells per well one day prior to transfection. Mammalian expression plasmids pLX304 (vector from Addgene) carrying different MRGPRX4 coding sequences were transiently transfected into HEK293T cells in triplicates with Lipofectamine LTX reagents (Thermo Scientific). Intracellular calcium mobilization assays were performed after one day of transfection. Murine Mrgprs tested include Mrgpra1, Mrgpra2a, Mrgpra2b, Mrgpra3, Mrgpra4, Mrgpra6, Mrgpra9, Mrgpra10, Mrgpra11, Mrgpra12, Mrgpra14, Mrgprb5, Mrgprb6, Mrgprb10, Mrgprb11, and Mrgprc11. WT and mutant MRGPRX4 constructs tested include WT, S83L, R82A, R86A, R95A, W158A, Y250A, and Y254A.
In general terms: A change in cytosolic calcium serves as a functional read-out for many receptors and channels.

Another assay addresses MRGPRX4 WT (S83) (Homo sapiens, UniProt Q96LA9, L83S). Nature of the assay: Calcium mobilization assay (FLIPR), WT (S83) MRGPRX4 transiently expressed in HEK293T cells. Details: expressed in transfected cells; host or cells: HEK293T, transient. As to conditions: for Calcium mobilization response (Fig. 4D dose-response) / calcium mobilization response (Fig. 3E and 3F dose-response): WT; for Calcium mobilization response (Fig. 4D dose-response): each cell one replicate. The assay is classed as cell-based.
Description: as §1, §2, §3

Assay [3] deals with T1, MRGPRX4 S83L (L83). Nature of the assay: PRESTO-Tango β-arrestin recruitment assay, HTLA cells stably expressing S83L MRGPRX4. The note with it: single replicate. The assay is classed as cell-based. The method, then: HTLA cells, a cell line derived from HEK293 and engineered to stably express a tTA-dependent luciferase reporter and a β-arrestin2-TEV fusion gene, were generously provided by Richard Axel's laboratory. HTLA cells were cultured in growth medium containing 2 μg/ml puromycin and 100 μg/ml hygromycin B in 5% CO2 at 37 °C. Stably MRGPRX4-expressing HTLA cells were generated by transfecting pcDNA3.1(+)-Zeo containing MRGPRX4-Tango construct (either with WT or S83L mutant sequence) into HTLA cells with Lipofectamine 3000 and selecting the successful transfected clones with Zeocin.
HTLA cells stably expressing either WT or S83L MRGPRX4 were seeded in PDL-coated 96-well white clear bottom cell culture plates with DMEM containing 10% FBS, at a density of 35,000 cells per well and were allowed to attach to the bottom of the wells overnight. The next day, growth medium was replaced with 100 μl of serum-free medium containing the tested drugs at various concentrations, and the cells were then incubated at 37°C for 24 h. On the following day, media with drug solutions was removed and 50 μl per well of Bright-Glo™ Reagent from Bright-Glo™ Luciferase Assay System (Promega) was loaded. The plate was incubated at room temperature in the dark for 5 min, and the relative luminescence units were measured using the Flexstation-3 instrument with SoftMax®Pro 7.1 software (Molecular Devices). Dose response curves and EC50s were analyzed as described above.
MRGPRX4 by β-arrestin (Tango) recruitment assay. Data are from three independent experiments,
performed in triplicate, and depicted as mean ± SEM.

Another assay concerns WT NP1-3 DRG neurons. Put plainly: GCaMP6s calcium imaging of NP1-3 DRG neurons from Pirt-Cre; Rosa-lsl-GCaMP6s mice. The assay is classed as cell-based, mouse. As to conditions: 10 µM.
The test system of another assay is WT mice. Put plainly: Itch behavioral study in WT mice across concentrations (fig. S4).

T1 sequence (Q96LA9 whole entry, stated change not applied): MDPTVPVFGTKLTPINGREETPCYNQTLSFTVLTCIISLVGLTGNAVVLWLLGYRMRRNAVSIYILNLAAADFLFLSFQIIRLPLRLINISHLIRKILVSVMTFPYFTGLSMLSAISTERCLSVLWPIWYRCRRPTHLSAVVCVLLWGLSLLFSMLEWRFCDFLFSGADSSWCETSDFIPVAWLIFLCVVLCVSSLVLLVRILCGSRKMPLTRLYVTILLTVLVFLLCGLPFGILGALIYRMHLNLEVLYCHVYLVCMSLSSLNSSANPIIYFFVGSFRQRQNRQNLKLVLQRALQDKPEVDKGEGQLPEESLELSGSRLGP
Sequence of MRGPRX4 WT (S83) (Q96LA9 whole entry L83S): as the sequence (Q96LA9 whole entry, stated change not applied) above, with L83S counted along it
Description for WT NP1-3 DRG neurons: Murine DRGs (from both male and female) were harvested from all spinal segments and digested in dispase (5 mg/ml) / type I collagenase (1 mg/ml) enzyme mix at 37 °C for an hour. Enzyme mix was replaced with complete DH10 media (90% DMEM/F12, 10% FBS, penicillin (100 units/ml), and streptomycin (100 μg/ml)) and gently triturated with 1 ml pipette tip until the media turned cloudy without visible tissue chunks. Dissociated tissues were filtered through a 70 μm filter and spun down 1250 rpm for 5 min at RT. Supernatant was removed and the cell pellet was resuspended in complete DH10 media. Cell suspension was then added on top of poly-D-lysine- and laminin-coated coverslips and sat for 1–2 h at 37°C. Complete DH10 media supplemented with NGF (50 ng/ml) was then added into the vessel. Neurons were allowed to recover overnight at 37°C for the next-day calcium imaging experiment.
Calcium imaging data was collected with a Nikon Eclipse TE 200 microscope. Time series GCaMP6 fluorescence intensity was acquired through the FITC/GFP channel. […] Neurons with GCaMP6 signal rose above 50% of the baseline intensity after compound application were counted as positive responders and the percentage of responding neurons was calculated. […]
(top) and individual (bottom) calcium activity, measured by fluorescence intensity normaliz ed to […]
activity from the recorded neurons is shown in heatmap. […]
Description for WT mice: Experimenters and subjects scoring the recorded videos were both blind to the mouse genotype and tested compounds. Behavioral tests comparing NP2-WT and NP2-X4+ scratching behavior were 6–12weeks old littermates including both genders. In brief, on the day preceding the experiment, animals were acclimated to the test chamber for at least 30 min and the experimenters performed mock injections 1–2 times in between. On the day of experiments, animals were habituated in test chambers for 10 min before receiving subcutaneous injection of 50ul compounds. Videos were recorded for 30 min after the injection. A bout of scratching was defined as a sustained scratching movement initiated by hindpaws toward the injection site (until the pause of the movement / withdrawal of the hindpaw). Scratching bouts were quantified within the 30 min record sessions.

As to `O=C1NC(c2ccccc2)(c2ccccc2)C(=O)N1COP(=O)(O)O` [Fosphenytoin], the “PRESTO-Tango response (fig. S1), single replicate” value (from here on “PRESTO-Tango response (fig. S1)”) with HTLA cells (concentration 3.91e-6 M) was 0.004928 and 0.004598 and 0.01112 and 0.01116 and 0.003197 and 0.004271; in the assay with HTLA cells (concentration 7.81e-6 M), 0.007499 and 0.005683 and 0.007727 and 0.01002 and 0.00431 and 0.008159; in the assay with HTLA cells (concentration 1.56e-5 M) it was 0.004669 and 0.01023 and 0.009474 and 0.01705 and 0.007507 and 0.01409; in the assay on HTLA cells (concentration 3.13e-5 M), 0.006626 and 0.01061 and 0.0114 and 0.01987 and 0.004604 and 0.008542; in the assay on HTLA cells (concentration 6.25e-5 M), 0.01361 and 0.01504 and 0.01581 and 0.04311 and 0.006432 and 0.0129; in the assay with HTLA cells (concentration 0.00025 M), 0.01688 and 0.03926 and 0.02383 and 0.08171 and 0.008888 and 0.02076. Besides, the “PRESTO-Tango response (fig. S1)” value with HTLA cells (concentration 0.0005 M) is 0.0416 and 0.04542 and 0.03124 and 0.09673 and 0.01269 and 0.03191; in the assay on HTLA cells (concentration 0.001 M), 0.01837 and 0.05513 and 0.03077 and 0.1069 and 0.01168 and 0.03953; with HTLA cells (concentration 0.002 M) it was 0.01971 and 0.05409 and 0.03051 and 0.1054 and 0.01079 and 0.03852; in the assay with HTLA cells (concentration 0.004 M), 0.01886 and 0.05018 and 0.02929 and 0.08185 and 0.01164 and 0.032. For the same compound, the “Scratching / itch behavior, NP2-X4+ mice vs WT littermates” value in assay [1] is listed as “significantly increased scratching behavior”. The “Scratching bouts of individual animals” value in assay [1] is 32 and 55 and 37 and 89 and 49 and 39 and 73 and 83 and 25 and 94. The “Calcium mobilization response (Fig. 4D dose-response)” value is 12.9092 on MRGPRX4 S83L (L83) [2] (5.08e-8 M); 15.1222 on MRGPRX4 S83L (L83) [2] (1.52e-7 M); 12.9092 at MRGPRX4 S83L (L83) [2] (4.57e-7 M); -11.5543 on MRGPRX4 WT (S83) (5.65e-9 M); 76.9188 at MRGPRX4 WT (S83) (4.12e-6 M). Also, the EC50 was 1.09e-05 M and 5.99e-05 M and 1.97e-05 M on MRGPRX4 S83L (L83) [2] (Fig. 4E, unit not in the head, taken from Concentration (M) of the sheet and pEC50 [M] of Fig. 4E, read-out: EC50s (each well represents individual experiment)); 7.21e-07 M and 5.46e-06 M and 1.46e-06 M on MRGPRX4 WT (S83) (WT (S83), Fig. 4E, unit not in the head, taken from Concentration (M) of the sheet and pEC50 [M] of Fig. 4E, read-out: EC50s (each well represents individual experiment)). In addition, the “calcium mobilization response (Fig. 3E and 3F dose-response)” value on MRGPRX4 WT (S83) (4.12e-6 M) is 76.9188; on MRGPRX4 WT (S83) (1.23e-5 M) it was 82.4819. Moreover, on MRGPRX4 WT (S83) (calcium mobilization, compared with S83L (A17)), the “Potency at S83- vs L83-MRGPRX4” value is listed as “improved potency at S83-MRGPRX4”. Moreover, the “fig. S7 response (raw signal), concentration-response” value at MRGPRX4 S83L (L83) [3] (3.91e-6 M) was 13508.2; on MRGPRX4 S83L (L83) [3] (7.81e-6 M) it was 22144.4. Moreover, the “Activation of NP1–3 neuron populations” value in the assay on WT NP1-3 DRG neurons was “few neurons were activated”. The “Scratching bouts (each well represents individual mouse)” value in the assay with WT mice (1 mM subcutaneous nape injection) was 0 (2×) and 16 (2×) and 11 and 26; in the assay on WT mice (10 mM subcutaneous nape injection), 3 and 4 and 1 and 0 and 26.
Take `O=C1NC(=O)C(c2ccccc2)(c2ccccc2)N1` [Phenytoin]: the “PRESTO-Tango response (fig. S1)” value is 0.008545 and 0.005867 and 0.007953 and 0.006901 and 0.004547 and 0.009824 with HTLA cells (concentration 4.88281e-6 M); 0.00741 and 0.01006 and 0.006055 and 0.01246 and 0.001908 and 0.0161 in the assay on HTLA cells (concentration 9.76563e-6 M); 0.004145 and 0.01453 and 0.008851 and 0.01106 and 0.007187 and 0.01768 in the assay with HTLA cells (concentration 1.95313e-5 M); 0.005318 and 0.007104 and 0.005862 and 0.009351 and 0.00878 and 0.001453 in the assay with HTLA cells (concentration 3.90625e-5 M); 0.01242 and 0.005662 and 0.007299 and 0.009043 and 0.01323 and 0.004261 with HTLA cells (concentration 7.8125e-5 M); 0.006045 and 0.003571 and 0.004631 and 0.006824 and 0.00263 and 0.004138 in the assay with HTLA cells (concentration 0.0003125 M). For the same compound, the “PRESTO-Tango response (fig. S1)” value in the assay on HTLA cells (concentration 0.000625 M) is 0.006823 and 0.004668 and 0.00481 and 0.009762 and 0.00692 and 0.01249; with HTLA cells (concentration 0.0025 M), 0.006747 and 0.00542 and 0.005105 and 0.007273 and 0.002426 and 0.006102; in the assay on HTLA cells (concentration 0.005 M) it was 0.003966 and 0.00315 and 0.01104 and 0.009531 and 0.005922 and 0.01091. Moreover, the “Scratching / itch behavior, NP2-X4+ mice vs WT littermates” value in assay [1] was “no differences in itch behavior were detected”. Also, the “Scratching bouts of individual animals” value in assay [1] was 6 and 0 and 19 and 1 (2×) and 14 and 16 and 21 and 12 and 20.
